According to patent US20210379153A1, “COMBINATION THERAPIES COMPRISING SIRP ALPHA-BASED CHIMERIC PROTEINS” (Shattuck Labs, Inc., priority 2018, published 2021):

Assays:
[1] = test system: CT26 tumor cells; experiment: CT26 tumor model, checkpoint antibody combinations (first Example 8); type: in vivo, BALB/C mice
Procedure: In FIG. 15B, the treatments included: an anti-CTLA-4 antibody (9D9), an anti-PD-1 antibody (RMP1-14), an anti-OX40 antibody (OX86), or the SIRPα(CD172a)-Fc-CD40L chimeric protein. […] In FIG. 15D, the treatments included the SIRPα(CD172a)-Fc-CD40L chimeric protein then the anti-CTLA-4 antibody. Tumor sizes were assayed every other day until the 27th day after inoculation.

[2] = Repeat-dose safety and activity study in cynomolgus macaques; type: in vivo
Procedure: FIG. 21 is a graph showing cynomolgus macaques that were treated with vehicle, or 0.1, 1, 10, and 40 mg/kg of SIRPα-Fc-CD40L. Blood chemistry analysis assessed peripheral erythrocyte counts, hemoglobin levels, and hematocrit. In addition, the fold-change in lymphocyte count from pre-dose to 24 hours post-dose is shown.
The experiments of this example tested the safety and activity of the human SIRPα-Fc-CD40L chimeric protein following repeat doses in cynomolgus macaques. Briefly, naïve cynomolgus macaques were administered the human SIRPα-Fc-CD40L chimeric protein by intravenous infusion every week, for five consecutive weeks, at doses of 0.1, 1, 10 and 40 mg/kg. Standard hematology and clinical chemistry parameters were collected before and after each dose.
Receptor occupancy was evaluated on circulating CD40+ lymphocytes.

[3] = test system: tumors; experiment: In vivo tumor model, SIRPα-Fc-OX40L with checkpoint antibodies (Example 14); design: species or system mice
Procedure: The in vivo ability of combinations of the SIRPα-Fc-OX40L chimeric protein with anti-CTLA-4 antibodies or the SIRPα-Fc-OX40L chimeric protein with anti-PD-1 antibodies to target and treat tumors was determined.

[4] = test system: tumors; experiment: In vivo tumor model, SIRPα-Fc-LIGHT with anti-PD-1 (Example 15); design: species or system mice; conditions: combination with anti-PD-1 antibody
Procedure: The in vivo ability of combinations of the SIRPα-Fc-LIGHT chimeric protein with anti-PD-1 antibodies to target and treat tumors was determined. (FIG. 26A and FIG. 26B) FIG. 26C and FIG. 26D include data relevant to the graphs of FIG. 26A and FIG. 26B.

[5] = test system: human donor red blood cells (RBCs); experiment: In vitro hemolysis assay, human red blood cells; type: cell-based
Procedure: FIG. 22B is a graph showing RBCs and test agents that were incubated at 37° C. for 24 hours and then the media was assessed at OD490 for changes in absorbance due to hemoglobin being released from lysing RBCs. […] FIG. 22D are graphs showing that peripheral blood was isolated from mice receiving three IP doses (300 μg) of the murine SIRPα-Fc-CD40L surrogate (arrows). Cell populations were assessed by flow cytometry and included CD20+ B cells, CD110+, CD4+/CD11c+, and CD8+/CD11c+ dendritic cells.
However, the in vitro systems used to test this question have significant limitations, including a complete lack of macrophages in the test system.

[6] = molecular target: recombinant hCD47 and recombinant hCD40 (Homo sapiens, UniProt P25942+Q08722); experiment: Functional dual ELISA (hCD40 capture, hCD47-His detection); type: binding
[7] = test system: type I interferon regulatory genes INFα1 and IFNβ1; experiment: Type I interferon response in Raji cell:macrophage co-cultures; type: cell-based, human
Procedure: FIG. 8D: Macrophage:Toledo lymphoma co-cultures were harvested 2 hours into phagocytosis assays in the presence of rituximab ([…]), SIRPα-Fc-CD40L ([…]), or the combination of both agents. Macrophages were isolated by CD11b+ FACS, RNA was prepared, cDNA synthesized, and gene expression (IFNa1, IFNb1, CD80, and CD86) assessed by qRT-PCR. Fold change was calculated using DDCT and values obtained from the housekeeping gene ACTB, and the corresponding values from untreated samples. […] After 2 hours, co-cultures were isolated from tissue culture vessels and were stained with a fluorescently conjugated CD11b antibody to discriminate macrophages. Cells were then assessed by flow cytometry for the co-localization of fluorescent signal from both cells types. Identical assays were set up where macrophages were pre-incubated for 1 hour with 20 μg/mL of a commercially available Fc block cocktail or with 20 μg/mL of a CD40 blocking antibody or with 5 μg/mL of a calreticulin blocking peptide. FIG. 8G: RAW 264.7-Lucia ISG cells were cultured with A20 lymphoma cells in the presence of […] of mSIRPα-Fc-CD40L, recombinant Fc-mCD40L, mSIRPα-Fc, or their combination, 1 mg/mL anti-mCD20, or the combination of mSIRPα-Fc-CD40L and anti-mCD20. After 24-hours type I interferon induced luminescence was assessed using a luminometer. The maximum luminescence (RLU) from each experiment was set to 1, and all other samples were normalized accordingly. Values from repeat experiments are shown.

[8] = test system: CT26 tumors; experiment: Syngeneic CT26 colon tumor model vs CD40 agonist and CD47 blocking antibodies (Example 11); type: in vivo, mice
From the text: Mice were inoculated with CT26 tumors on day 0 and treated at a later starting date than FIG. 20A with mSIRPα-Fc-CD40L ARC on days 7, 9, and 11. […] In FIG. 20D and FIG. 20E, BALB/C mice were inoculated with WEHI3 tumors (FIG. 20D) or A20 tumors (FIG. 20E) subcutaneously on the rear flank, and then treated via IP injection with anti-CD20 or mSIRPα-Fc-CD40L on days 7, 9, and 11 (WEHI3) or days 10, 12, and 14 (A20); when tumors were established and reached approximately 57-60 mm^3. A cohort of mice were pre-treated with an interferon alpha receptor 1 (IFNAR1) blocking antibody ([…] by IP injection) on days −1, 1, and 10 (WEHI3) or on days −1, 1, and 13 (A20). […] Samples were normalized to untreated animals.
Implanted CT26 tumors were allowed to grow to […] before treatment was initiated with a fixed regimen of two doses of either a CD40 agonist antibody (clone FGK4.5), a CD47 blocking antibody (clone MIAP301), a combination of the two antibodies, or the murine SIRPα-Fc-CD40L chimeric protein.

[9] = test system: HCC827 (high EGFR-expressing lung cancer cell line); experiment: Macrophage engulfment of HCC827 cells; type: cell-based, human; conditions: combination with anti-EGFR antibody (cetuximab); vs low EGFR-expressing tumor cells
[10] = combination with anti-CTLA-4 antibody
[11] = combination with anti-PD-1 antibody

SIRPα-Fc-CD40L: generic name of the SIRPαECD-Fc-CD40LECD chimeric protein; human or murine version according to the experiment
improvement in tumor volume ([1]; chimeric protein administered after the anti-CTLA-4 antibody): most significant improvement
tumor volume [1, 10]: reduced tumor volume
total number of lymphocytes (episodic fluctuation) ([2]; before and after each dose): did not depart from the upper and lower range of normal
number of CD40+ cells in the peripheral blood ([2]; cynomolgus monkey, in vivo): dose-dependent decrease
serum cytokines/chemokines (CCL2, CXCL9, CXCL10, IL-6, IL-15, IL-17A, IL-23) ([2]; following each infusion): dose-dependent increases
rejection of primary tumor ([3]; combination of chimeric protein and antibody): able to reject primary tumor
survival [3, 10]: any survivors by the sixteenth day
tumor size [3, 10]: effective in reducing tumor size
survival [3, 11]: any survivors by the sixteenth day
tumor size [3, 11]: effective in reducing tumor size
rejection of primary tumor [4]: able to reject primary tumor
hemolysis [5]: did not reveal evidence of hemolysis
simultaneous binding of SIRPα-domain to hCD47 and CD40L-domain to hCD40 [6]: simultaneous binding
IFNβ protein synthesis ([7]; combination with anti-CD20 antibody): significantly greater
RNA expression of INFα1 ([7]; combination with anti-CD20 antibody vs either component alone): significantly greater
RNA expression of IFNβ1 ([7]; combination with anti-CD20 antibody vs sum of alone treatments): greater than the sum
proportion of AH1-tetramer positive CD8+ T cells in tumor and spleen ([8]; 13 days following tumor inoculation): increase in the proportion
therapeutic benefit with CD4 depletion ([8]; antibody-mediated depletion of CD4+ cells): partially required
therapeutic benefit with CD8 depletion ([8]; antibody-mediated depletion of CD8+ cells): completely eliminated the therapeutic benefit
macrophage engulfment of tumor cells [9]: more effective
